Test results from US20260271927A1, “PESTICIDALLY ACTIVE BICYCLIC COMPOUNDS” (SYNGENTA CROP PROTECTION AG, priority 2023, published 2026).

Experiments:
Format in all cases: in vivo
[1] = system: Chilo suppressalis (Striped Rice Stemborer); test: Chilo suppressalis (striped rice stemborer), artificial diet in 24-well plates, L2 larvae; settings: 144 h, application rate of 200 ppm, 6 days after infestation, read-out: control in at least one of the three categories (mortality, anti-feedant effect, or growth inhibition)
Experimental: 24-well microtiter plates with artificial diet were treated with aqueous test solutions prepared from 10′000 ppm DMSO stock solutions by pipetting. After drying, the plates were infested with L2 larvae (6-8 per well). The samples were assessed for mortality, anti-feeding effect, and growth inhibition in comparison to untreated samples 6 days after infestation. Control of Chilo suppressalis by a test sample is given when at least one of the categories mortality, anti-feedant effect, and growth inhibition is higher than the untreated sample.

[2] = system: Diabrotica balteata (Corn Root Worm); test: Diabrotica balteata (corn root worm), sprayed maize sprouts, L2 larvae; settings: 96 h, application rate of 200 ppm, 4 days after infestation, read-out: control in at least one of the two categories (mortality or growth inhibition)
Experimental: Maize sprouts placed onto an agar layer in 24-well microtiter plates were treated with aqueous test solutions prepared from 10′000 ppm DMSO stock solutions by spraying. After drying, the plates were infested with L2 larvae (6 to 10 per well). The samples were assessed for mortality and growth inhibition in comparison to untreated samples 4 days after infestation.

[3] = system: Myzus persicae (Green Peach Aphid); test: Myzus persicae systemic activity, roots of pea seedlings in test solution; settings: 144 h, test rate of 24 ppm, 6 days after placing seedlings into test solutions
Experimental: Roots of pea seedlings infested with an aphid population of mixed ages were placed directly into aqueous test solutions prepared from 10′000 DMSO stock solutions. The samples were assessed for mortality 6 days after placing seedlings into test solutions.

[4] = system: Spodoptera littoralis (Egyptian Cotton Leaf Worm); test: Spodoptera littoralis (Egyptian cotton leaf worm), cotton leaf discs, L1 larvae; settings: foliar, 72 h, application rate of 200 ppm, 3 days after infestation, read-out: control in at least one of the three categories (mortality, anti-feedant effect, or growth inhibition)
Experimental: Cotton leaf discs were placed onto agar in 24-well microtiter plates and sprayed with aqueous test solutions prepared from 10′000 ppm DMSO stock solutions. After drying the leaf discs were infested with five L1 larvae. The samples were assessed for mortality, anti-feeding effect, and growth inhibition in comparison to untreated samples 3 days after infestation. Control of Spodoptera littoralis by a test sample is given when at least one of the categories mortality, anti-feedant effect, and growth inhibition is higher than the untreated sample.

[5] = system: Myzus persicae (Green Peach Aphid); test: Myzus persicae feeding/contact activity, eggplant leaf discs; settings: foliar, 144 h, application rate of 200 ppm, 6 days after infestation, read-out: growth inhibition
Experimental: (§1) Eggplant leaf discs were placed onto agar in a 24-well microtiter plate and sprayed with aqueous test solutions prepared from 10′000 ppm DMSO stock solutions. After drying, the leaf discs were infested with an aphid population of mixed ages. The samples were assessed for mortality 6 days after infestation.

[6] = system: Myzus persicae (Green Peach Aphid); test: Myzus persicae intrinsic activity, sucrose solution under Parafilm; settings: 120 h, application rate of 12.5 ppm, 5 days after infestation, read-out: control (assessed for mortality)
Experimental: Test compounds prepared from 10′000 ppm DMSO stock solutions were applied by pipette into 24-well microtiter plates and mixed with sucrose solution. The plates were closed with a stretched Parafilm. A plastic stencil with 24 holes was placed onto the plate and infested pea seedlings were placed directly on the Parafilm. The infested plate was closed with a gel blotting paper and another plastic stencil and then turned upside down. The samples were assessed for mortality 5 days after infestation.

[7] = system: Plutella xylostella (Diamond Back Moth); test: Plutella xylostella (diamond back moth), artificial diet, eggs; settings: 192 h, application rate of 200 ppm, 8 days after infestation, read-out: effect in at least one of the two categories (mortality or growth inhibition)
Experimental: 24-well microtiter plates with artificial diet were treated with aqueous test solutions prepared from 10′000 ppm DMSO stock solutions by pipetting. After drying, Plutella eggs were pipetted through a plastic stencil onto a gel blotting paper and the plate was closed with it. The samples were assessed for mortality and growth inhibition in comparison to untreated samples 8 days after infestation.

[8] = system: Myzus persicae (Green Peach Aphid); test: Myzus persicae feeding/contact activity, sunflower leaf discs; settings: foliar, 144 h, application rate of 200 ppm, 6 days after infestation
Experimental: as §1, with “Sunflower” for “Eggplant”

[9] = system: Bemisia tabaci (Cotton White Fly); test: Bemisia tabaci feeding/contact activity, cotton leaf discs, adult white flies; settings: foliar, 144 h, application rate of 200 ppm, 6 days after incubation
Experimental: Cotton leaf discs were placed on agar in 24-well microtiter plates and sprayed with aqueous test solutions prepared from 10′000 ppm DMSO stock solutions. After drying the leaf discs were infested with adult white flies. The samples were checked for mortality 6 days after incubation.

[10] = system: Tetranychus urticae (Two-Spotted Spider Mite); test: Tetranychus urticae feeding/contact activity, bean leaf discs; settings: foliar, 192 h
Experimental: Bean leaf discs on agar in 24-well microtiter plates were sprayed with aqueous test solutions prepared from 10′000 ppm DMSO stock solutions. After drying the leaf discs were infested with a mite population of mixed ages. The samples were assessed for mortality on mixed population (mobile stages) 8 days after infestation.

Row | Compound | percent control (mortality, anti-feedant effect or growth inhibition) at 200 ppm [1] | percent control (mortality or growth inhibition) at 200 ppm [2] | mortality at 24 ppm [3] | mortality at 200 ppm [5] | also measured
1 | O=C(NCc1ccccc1)[C@H]1[C@@H]2OCCO[C@@H]21 [Compound P41, (1α,6α,7α)-N-benzyl-2,5-dioxabicyclo[4.1.0]heptane-7-carboxamide] | ≥ 80% | – | – | – | –
2 | Cc1ccc(NC(=O)[C@H]2[C@@H]3OCCO[C@@H]32)cc1 [Compound P18, (1α,6α,7α)-N-(p-tolyl)-2,5-dioxabicyclo[4.1.0]heptane-7-carboxamide] | – | ≥ 80% | ≥ 80% | – | –
3 | O=C(NC1CCOCC1)[C@H]1[C@@H]2OCCO[C@@H]21 [Compound P37, (1α,6α,7α)-N-tetrahydropyran-4-yl-2,5-dioxabicyclo[4.1.0]heptane-7-carboxamide] | – | – | ≥ 80% | – | –
4 | O=C(Nc1cccn(-c2ccccc2)c1=O)[C@H]1[C@@H]2CCCO[C@@H]21 (relative stereo) [Compound P4, rel-(1S,6S,7S)-N-(2-oxo-1-phenyl-3-pyridyl)-2-oxabicyclo[4.1.0]heptane-7-carboxamide] | – | – | – | – | percent control (mortality, anti-feedant effect or growth inhibition) at 200 ppm [4]: ≥ 80%
5 | CCONC(=O)[C@H]1[C@@H]2OCCO[C@@H]21 [Compound P15, (1α,6α,7α)-N-ethoxy-2,5-dioxabicyclo[4.1.0]heptane-7-carboxamide] | ≥ 80% | – | ≥ 80% | ≥ 80% | mortality at 12.5 ppm [6]: ≥ 80%; percent effect (mortality or growth inhibition) at 200 ppm [7]: ≥ 80%
6 | O=C(NOC1CCC1)[C@H]1[C@@H]2OCCO[C@@H]21 [Compound P31, (1α,6α,7α)-N-(cyclobutoxy)-2,5-dioxabicyclo[4.1.0]heptane-7-carboxamide] | ≥ 80% | ≥ 80% | ≥ 80% | ≥ 80% | –
7 | NC(=O)[C@H]1[C@@H]2OCCO[C@@H]21 [Compound P5, (1α,6α,7α)-2,5-dioxabicyclo[4.1.0]heptane-7-carboxamide] | ≥ 80% | ≥ 80% | ≥ 80% | ≥ 80% | mortality at 200 ppm [8]: ≥ 80%; mortality at 12.5 ppm [6]: ≥ 80%
8 | Cc1ccc(NC(=O)[C@H]2[C@@H]3OCCO[C@@H]32)c(F)c1 [Compound P17, (1α,6α,7α)-N-(2-fluoro-4-methyl-phenyl)-2,5-dioxabicyclo[4.1.0]heptane-7-carboxamide] | – | ≥ 80% | – | – | –
9 | CNC(=O)c1ccccc1NC(=O)[C@H]1[C@@H]2OCCO[C@@H]21 [Compound P6] | – | – | ≥ 80% | – | mortality at 12.5 ppm [6]: ≥ 80%
10 | Cc1ccccc1NC(=O)[C@H]1[C@@H]2OCCO[C@@H]21 [Compound P29, (1α,6α,7α)-N-(o-tolyl)-2,5-dioxabicyclo[4.1.0]heptane-7-carboxamide] | – | ≥ 80% | ≥ 80% | – | –
11 | O=C(NCc1cc(Cl)ccc1Cl)[C@H]1[C@@H]2OCCO[C@@H]21 [Compound P19, (1α,6α,7α)-N-[(2,5-dichlorophenyl)methyl]-2,5-dioxabicyclo[4.1.0]heptane-7-carboxamide] | – | ≥ 80% | – | – | –
12 | Cc1cccc(NC(=O)[C@H]2[C@@H]3OCCO[C@@H]32)c1 [Compound P16, (1α,6α,7α)-N-(m-tolyl)-2,5-dioxabicyclo[4.1.0]heptane-7-carboxamide] | – | – | – | ≥ 80% | –
13 | Cn1ccc(NC(=O)[C@H]2[C@@H]3OCCO[C@@H]32)n1 [Compound P30, (1α,6α,7α)-N-(1-methylpyrazol-3-yl)-2,5-dioxabicyclo[4.1.0]heptane-7-carboxamide] | – | ≥ 80% | ≥ 80% | – | –
14 | O=C(NOCc1c(F)cccc1F)[C@H]1[C@@H]2OCCO[C@@H]21 [Compound P14, (1α,6α,7α)-N-[(2,6-difluorophenyl)methoxy]-2,5-dioxabicyclo[4.1.0]heptane-7-carboxamide] | ≥ 80% | – | ≥ 80% | ≥ 80% | –
15 | O=C(Nc1cc2ccccn2n1)[C@H]1[C@@H]2OCCO[C@@H]21 [Compound P33] | – | ≥ 80% | – | – | –
16 | CCOC(=O)[C@H]1[C@@H]2OCCO[C@@H]21 [Compound P8, Ethyl(1α,6α,7α)-2,5-dioxabicyclo[4.1.0]heptane-7-carboxylate] | ≥ 80% | ≥ 80% | ≥ 80% | ≥ 80% | mortality at 200 ppm [9]: ≥ 80%; mortality at 12.5 ppm [6]: ≥ 80%; percent effect (mortality or growth inhibition) at 200 ppm [7]: ≥ 80%
17 | O=C(NCC1CC1)[C@H]1[C@@H]2OCCO[C@@H]21 [Compound P28, (1α,6α,7α)-N-(cyclopropylmethyl)-2,5-dioxabicyclo[4.1.0]heptane-7-carboxamide] | – | – | – | – | percent control (mortality, anti-feedant effect or growth inhibition) at 200 ppm [4]: ≥ 80%
18 | NC(=O)[C@H]1[C@@H]2CCCO[C@@H]21 (relative stereo) [Compound P1, rel-(1R,6R,7R)-2-oxabicyclo[4.1.0]heptane-7-carboxamide] | – | ≥ 80% | – | – | mortality at 200 ppm [10]: ≥ 80%
19 | Cn1cc(NC(=O)[C@H]2[C@@H]3OCCO[C@@H]32)cn1 [Compound P36, (1α,6α,7α)-N-(1-methylpyrazol-4-yl)-2,5-dioxabicyclo[4.1.0]heptane-7-carboxamide] | – | ≥ 80% | ≥ 80% | ≥ 80% | –
20 | O=C(NOCc1ccccc1)[C@H]1[C@@H]2OCCO[C@@H]21 [Compound P13, (1α,6α,7α)-N-benzyloxy-2,5-dioxabicyclo[4.1.0]heptane-7-carboxamide] | – | – | ≥ 80% | ≥ 80% | mortality at 200 ppm [9]: ≥ 80%
21 | Cn1nccc1NC(=O)[C@H]1[C@@H]2OCCO[C@@H]21 [Compound P38, (1α,6α,7α)-N-(2-methylpyrazol-3-yl)-2,5-dioxabicyclo[4.1.0]heptane-7-carboxamide] | – | ≥ 80% | – | – | –
22 | CCC(NC(=O)[C@H]1[C@@H]2OCCO[C@@H]21)c1ccc(Cl)cc1 (stereo partly drawn) [Compound P40, (1α,6α,7α)-N-[1-(4-chlorophenyl)propyl]-2,5-dioxabicyclo[4.1.0]heptane-7-carboxamide] | – | ≥ 80% | – | – | –
23 | CN(C)C(=O)[C@H]1[C@@H]2OCCO[C@@H]21 [Compound P10, (1α,6α,7α)-N,N-dimethyl-2,5-dioxabicyclo[4.1.0]heptane-7-carboxamide] | ≥ 80% | – | – | – | –
24 | O=C(O)[C@H]1[C@@H]2OCCO[C@@H]21 [Compound P7, (1α,6α,7α)-2,5-dioxabicyclo[4.1.0]heptane-7-carboxylic acid] | ≥ 80% | – | ≥ 80% | ≥ 80% | mortality at 200 ppm [9]: ≥ 80%; mortality at 12.5 ppm [6]: ≥ 80%
